Data reported in patent US20260248784A1, “BTK Degrader and Use Thereof” (JIANGSU VCARE PHARMATECH CO., LTD., priority 2023, published 2026).
Like-named read-outs stand apart in the source and are kept apart here.

Legend:
mino cells = assay: Activity test in Mino cells (CCK8 proliferation inhibition); assay type: cell-based; details: Homo sapiens, 72 h, 3 days, read-out: Cell inhibition IC50
Method: Cell culture: mino cells (culture conditions: RPMI1640 medium+15% FBS, 37° C., 5% CO2). Cell plating: The cells subcultured into the logarithmic growth phase were collected and transferred into a centrifuge tube, and centrifuged at 800 rpm for 5 min. The cells were resuspended in complete medium and counted. The cells were diluted and adjusted to a final concentration of 200000 cells/mL. The cells were then seeded into a 96-well plate with 100 μL per well. Cell administration: Each group of drug solutions was added into the 96-well plate, 100 μL per well, n=3 for each drug concentration. Meanwhile, negative wells (n=6) and blank wells (n=3) were set up. The 96-well plate was incubated in the incubator for further 3 days. CCK8 reagent was added to the 96-well plate, 20 μL per well, and then the plate was placed in the incubator for further 4 h. The absorbance of the solution was measured at a wavelength of 450 nm using an enzyme reader. The proliferation inhibition rate was calculated and the half inhibitory concentration IC50 value was calculated.

[1] = Brain tissue distribution test in mice; assay type: in vivo; details: IV 10 mg/kg; for AUC(0-inf) / AUC(0-t) / MRT / half-life: mouse; for half-life: read-out: T½ (converted)
Method: Mice were weighed and dosed, and about 50 μL of whole blood was collected from the orbital venous plexus at 5 min, 0.25 h, 0.5 h, 1 h, 2 h, 4 h, 6 h, 8 h, and 24 h after administration, using EDTA-K2 as anticoagulant. At the same time, the animals were euthanized, and the brains were removed, and the brain tissue samples were stored in a −80° C. refrigerator until analysis. The blood samples were centrifuged at 4000 rpm for 10 min at 4° C., and 20 μL of the supernatant plasma sample was taken into an EP tube and immediately stored in a −80° C. refrigerator until analysis. 10 μL of the plasma sample was transferred to a 96-well plate and 250 μL of acetonitrile (containing internal standard) was added to precipitate proteins. The samples were centrifuged at 4000 rpm/min for 20 min in a 4° C. centrifuge. The supernatant was transferred and injected into LC MS/MS to detect the drug concentration. The brain tissue samples were weighed and homogenized with 4 times ice-cold PBS, and 50 μL of the brain tissue homogenate was transferred to a 96-well plate. 500 μL of acetonitrile (containing internal standard) was added to precipitate the protein. The samples were centrifuged at 4000 rpm/min for 20 min in a 4° C. centrifuge. 380 μL of the supernatant was transferred to a new 96-well plate and 380 μL of 0.1% formic acid in water was added and mixed thoroughly. 10 μL of the sample was taken and injected into LC MS/MS to detect the drug concentration. The data were processed by Thermo LC Quan software, and the standard curve was established using the internal standard method, with the theoretical standard curve concentration as the abscissa and the peak area ratio as the ordinate (test compound peak area/internal standard peak area). Sample concentrations were calculated using the standard curve. The pharmacokinetic parameters were calculated using WinNonlin 8.2 software.

Mino cell xenograft = assay: Activity test in Mino cell xenograft model; assay type: in vivo, NOD SCID mice; details: for Tumor volume: end of experiment, Mean ± SD

Row | Structure (SMILES) | IC50 (mino cells) [µM] | further results
1 | COc1ccc(F)cc1C(=O)NCc1ccc(-c2nc(-c3ccc(N4CCN(CC5CCN(c6ccc(C7CCC(=O)NC7=O)cc6)CC5)CC4)cc3)n3ccnc(N)c23)cc1 (stereo not drawn) [Compound I-18] | < 0.025 | B/P Ratio AUC (brain)/AUC (plasma) [1]: 6.86% ± 0.01; AUC(0-inf) ([1]; brain): 2710 ± 149 ng·h/mL; AUC(0-t) ([1]; brain): 2270 ± 126 ng·h/mL; MRT ([1]; brain): 7.17 ± 0.59 h; half-life ([1]; brain): 9.39 ± 3.04 h; AUC(0-inf) ([1]; plasma): 39800 ± 4460 ng·h/mL; AUC(0-t) ([1]; plasma): 39100 ± 5080 ng·h/mL; MRT ([1]; plasma): 4.88 ± 0.14 h; half-life ([1]; plasma): 4.44 ± 1.38 h
2 | COc1ccc(F)cc1C(=O)NCc1ccc(-c2nc(-c3ccc(N4CCN(CC5CCN(c6ccc(N7CCC(=O)NC7=O)c(C)c6)CC5)CC4)cc3)n3ccnc(N)c23)cc1 [Compound I-40] | < 0.025 | TGITV (Relative tumor volume inhibition rate) (Mino cell xenograft; 30 mg/kg): 76.65%; Tumor volume (Mino cell xenograft; 30 mg/kg): 1146.34 ± 435.82 mm^3
3 | COc1ccc(F)cc1C(=O)NCc1ccc(-c2nn(-c3ccc(N4CCN(CC5CCN(c6ccc7c(c6)CN(C6CCC(=O)NC6=O)C7=O)CC5)CC4)nc3)c3ncnc(N)c23)cc1F (stereo not drawn) [II-5, N-(4-(4-amino-1-(6-(4-((1-(2-(2,6-dioxopiperidin-3-yl)-1-oxoisoindolin-5-yl)piperidin-4-yl)methyl)piperazin-1-yl)pyridin-3-yl)-1H-pyrazolo[3,4-d]pyrimidin-3-yl)-2-fluorobenzyl)-5-fluoro-2-methoxybenzamide] | 0.009 | 
4 | COc1ccc(F)cc1C(=O)NCc1ccc(-c2nn(-c3ccc(N4CCN(CC5CCN(c6ccc7c(c6)C(=O)N(C6CCC(=O)NC6=O)C7=O)CC5)CC4)nc3)c3ncnc(N)c23)cc1C (stereo not drawn) [II-6, N-(4-(4-amino-1-(6-(4-((1-(2-(2,6-dioxopiperidin-3-yl)-1,3-dioxoisoindol-5-yl)piperidin-4-yl)methyl)piperazin-1-yl)pyridin-3-yl)-1H-pyrazolo[3,4-d]pyrimidin-3-yl)-2-methylbenzyl)-5-fluoro-2-methoxybenzamide] | 0.021 | 
5 | COc1ccc(F)cc1C(=O)NCc1ccc(-c2nn(-c3ccc(C4CCN(CC5CCN(c6ccc7c(c6)C(=O)N(C6CCC(=O)NC6=O)C7=O)CC5)CC4)nc3)c3ncnc(N)c23)cc1 (stereo not drawn) [II-7, N-(4-(4-amino-1-(6-(1-((1-(2-(2,6-dioxopiperidin-3-yl)-1,3-dioxoisoindolin-5-yl)piperidin-4-yl)methyl)piperidin-4-yl)pyridin-3-yl)-1H-pyrazolo[3,4-d]pyrimidin-3-yl)benzyl)-5-fluoro-2-methoxybenzamide] | 0.018 | 
6 | COc1ccc(F)cc1C(=O)NCc1ccc(-c2nn(-c3ccc(N4CCN(CC5CCN(c6ccc7c(c6)C(=O)N(C6CCC(=O)NC6=O)C7)CC5)CC4)cc3)c(N)c2C(N)=O)cc1 (stereo not drawn) [II-10] | < 0.025 | 
7 | COc1ccc(F)cc1C(=O)NCc1ccc(-c2nn(-c3ccc(N4CCN(CC5CCN(c6ccc7c(c6)CN(C6CCC(=O)NC6=O)C7=O)CC5)CC4)nc3)c3ccnc(N)c23)cc1 (stereo not drawn) [II-12, N-(4-(4-amino-1-(6-(4-((1-(2-(2,6-dioxopiperidin-3-yl)-1-oxoisoindol-5-yl)piperidin-4-yl)methyl)piperazin-1-yl)pyridin-3-yl)-1H-pyrazolo[4,3-c]pyridin-3-yl)benzyl)-5-fluoro-2-methoxybenzamide] | < 0.5 | 
8 | COc1ccc(F)cc1C(=O)NCc1ccc(-n2c(=O)n(-c3ccc(N4CCN(CC5CCN(c6ccc7c(c6)CN(C6CCC(=O)NC6=O)C7=O)CC5)CC4)cc3)c3ccnc(N)c32)cc1 (stereo not drawn) [II-24, N-(4-(4-amino-1-(4-(-4-((1-(2-(2,6-dioxopiperidin-3-yl)-1-oxoisoindol-5-yl)piperidin-4-yl)methyl)piperazin-1-yl)phenyl)-2-oxo-1,2-dihydro-3H-imidazo[4,5-c]pyridin-3-yl)benzyl)-5-fluoro-2-methoxybenzamide] | < 0.05 | 
9 | COc1ccc(F)cc1C(=O)NCc1ccc(-c2nn(-c3ccc(N4CCN(CC5CCN(c6ccc7c(c6)C(=O)N(C6CCC(=O)NC6=O)C7)CC5)CC4)nc3)c(N)c2C(N)=O)cc1 (stereo not drawn) [II-34, 5-amino-1-(6-(4-((1-(2-(2,6-dioxopiperidin-3-yl)-3-oxoisoindolin-5-yl)piperidin-4-yl)methyl)piperazin-1-yl)pyridin-3-yl)-4-(((5-fluoro-2-methoxybenzamido)methyl)phenyl)-1H-pyrazole-4-carboxamide] | < 0.025 | 
10 | Nc1ncnc2c1c(-c1ccc(Oc3ccccc3)cc1)nn2-c1ccc(N2CCC(CN3CCN(c4ccc5c(c4)C(=O)N(C4CCC(=O)NC4=O)C5=O)CC3)CC2)nc1 (stereo not drawn) [II-37, 5-(4-((1-(5-(4-amino-3-(4-phenoxyphenyl)-1H-pyrazolo[3,4-d]pyrimidin-1-yl)pyridin-2-yl)piperidin-4-yl)methyl)piperazin-1-yl)-2-(2,6-dioxopiperidin-3-yl) isoindoline-1,3-dione] | < 0.025 | 
11 | COc1ccc(F)cc1C(=O)NCc1ccc(-c2nn(-c3ccc(N4CCN(CC5CCN(c6ccc7c(c6)CN(C6CCC(=O)NC6=O)C7=O)CC5)C[C@@H]4C)nc3)c3ncnc(N)c23)cc1 (stereo partly drawn) [II-38, N-(4-(4-amino-1-(6-((2S)-4-((1-(2-(2,6-dioxopiperidin-3-yl)-1-oxoisoindol-5-yl)piperidin-4-yl)methyl)-2-methylpiperazin-1-yl)pyridin-3-yl)-1H-pyrazolo[3,4-d]pyrimidin-3-yl)benzyl)-5-fluoro-2-methoxybenzamide] | < 0.025 | 
12 | COc1ccc(F)cc1C(=O)NCc1ccc(-c2nn(-c3ccc(C4CCN(CC5CCN(c6ccc7c(c6)C(=O)N(C6CCC(=O)NC6=O)C7)CC5)CC4)cc3)c(N)c2C(N)=O)cc1 (stereo not drawn) [II-39] | < 0.025 | 
13 | Nc1ncnc2c1c(-c1ccc(Oc3ccccc3)cc1)nn2-c1ccc(N2CCN(C[C@@H]3CCCC[C@H]3CN3CCN(c4ccc5c(c4)CN(C4CCC(=O)NC4=O)C5=O)CC3)CC2)nc1 (stereo partly drawn) [III-19, 3-(5-(4-(((1R,2R)-2-((4-(5-(4-amino-3-(4-phenoxyphenyl)-1H-pyrazolo[3,4-d]pyrimidin-1-yl)pyridin-2-yl)piperazin-1-yl)methyl)cyclohexyl)methyl)piperazin-1-yl)-1-oxoisoindolin-2-yl)piperidine-2,6-dione] | < 0.1 | 
14 | Cc1cc(N2CCN(C[C@@H]3CCCC[C@H]3CN3CCN(c4ccc(-n5nc(-c6ccc(Oc7ccccc7)cc6)c6c(N)ncnc65)cn4)CC3)CC2)ccc1N1CCC(=O)NC1=O [III-20, 1-(4-(4-(((1R,2R)-2-((4-(5-(4-amino-3-(4-phenoxyphenyl)-1H-pyrazolo[3,4-d]pyrimidin-1-yl)pyridin-2-yl)piperazin-1-yl)methyl)cyclohexyl)methyl)piperazin-1-yl)-2-methylphenyl)dihydropyrimidine-2,4(1H,3H)-dione] | < 0.5 | 
15 | C=CC(=O)N1CCC[C@@H](n2nc(-c3ccc(Oc4ccccc4)cc3)c3c(N)ncnc32)C1 [Ibrutinib, ibrutinib, reference compound] |  | TGITV (Relative tumor volume inhibition rate) (Mino cell xenograft; 50 mg/kg): 40.73%; Tumor volume (Mino cell xenograft; 50 mg/kg): 3018.11 ± 1293.65 mm^3
